Data reported in patent publication US10167262B2, “Herbicidal substituted 3-arylpyrazoles” (FMC CORPORATION, priority 2014, dated 2019).

Legend:
Format in all cases: in vivo
[1] = tested on: waterhemp_RES2, (ALS & HPPD resistant common waterhemp, Amaranthus rudis); assay: Test E postemergence greenhouse test, plant response rating 0-100; conditions: scale 0 to 100
In short: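 Visual ratings, 0 (no effect) to 100 (complete control), made versus controls 14–21 days after postemergence application in the greenhouse. Plants were at 1- to 4-leaf stage (2–18 cm) in peat moss/vermiculite potting medium.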

[2] = tested on: waterhemp (common waterhemp, Amaranthus rudis); assay: Test E pre-/postemergence greenhouse test, plant response rating 0-100; conditions: scale 0 to 100; for Waterhemp plant response rating: Preemergence
In short: (§1)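 Each species was tested both preemergence, with chemicals sprayed onto freshly planted silt loam, and postemergence, on plants 2 to 18 cm tall in a peat-based medium; the vehicle was a non-phytotoxic solvent mixture with surfactant. After 14 to 21 days in the greenhouse, growth was visually compared with controls and scored 0–100.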

[3] = tested on: hairy beggarticks (Bidens pilosa); assay: as above; conditions: Preemergence, scale 0 to 100
In short: as §1

[4] = tested on: fall panicum (Panicum dichotomiflorum); assay: as above; conditions: Panicum dichotomiflorum, post-emergence, Postemergence, scale 0 to 100
In short: as §1

[5] = tested on: Brazilian crabgrass (Digitaria horizontalis); assay: as above; conditions: Digitaria horizontalis, post-emergence, Postemergence, scale 0 to 100, read-out: Plant response rating, Crabgrass, Brazil
In short: as §1

[6] = tested on: arrowleaf sida (Sida rhombifolia); assay: as above; conditions: scale 0 to 100
In short: as §1

[7] = tested on: palmer pigweed (Amaranthus palmeri); assay: as above; conditions: scale 0 to 100; for Pigweed, Palmer plant response rating: Preemergence
In short: as §1

corn (Zea mays) = assay: as above; conditions: scale 0 to 100
In short: as §1

[8] = tested on: field bindweed (Convolvulus arvensis); assay: as above; conditions: scale 0 to 100
In short: as §1

[9] = tested on: Italian ryegrass (Lolium multiflorum); assay: as above; conditions: Lolium multiflorum, post-emergence, Postemergence, scale 0 to 100
In short: as §1

[10] = tested on: dayflower (Virginia (VA) dayflower, Commelina virginica); assay: as above; conditions: scale 0 to 100
In short: as §1

[11] = tested on: wild poinsettia (Euphorbia heterophylla); assay: as above; conditions: scale 0 to 100; for Poinsettia, Wild plant response rating: Preemergence
In short: as §1

**Q.** What does the source list for Cn1cc(C(=O)c2ccccc2)c(-c2cc(Cl)cc(Cl)c2)n1 [Compound 54, [3-(3,5-dichlorophenyl)-1-methyl-1H-pyrazol-4-yl]phenylmethanone]?
**A.** Plant response rating, Waterhemp_RES2 ([1]; 62 g ai/ha): 80; Plant response rating, Waterhemp_RES2 ([1]; 125 g ai/ha): 85; Plant response rating, Waterhemp_RES2 ([1]; 250 g ai/ha): 85; pest or weed control at 62 g/ha ([2]; Amaranthus tuberculatus, post-emergence, Postemergence, 62 g ai/ha): 60%; pest or weed control at 125 g/ha ([2]; Amaranthus tuberculatus, post-emergence, Postemergence, 125 g ai/ha): 70%; pest or weed control at 250 g/ha ([2]; Amaranthus tuberculatus, post-emergence, Postemergence, 250 g ai/ha): 95%; Waterhemp plant response rating ([2]; 125 g ai/ha): 96; Waterhemp plant response rating ([2]; 250 g ai/ha): 99; pest or weed control at 1000 g/ha ([3]; Bidens pilosa, pre-emergence, 1000 g ai/ha): 90%; Beggarticks plant response rating ([3]; 125 g ai/ha): 0; Beggarticks plant response rating ([3]; 250 g ai/ha): 23; pest or weed control at 31 g/ha ([4]; 31 g ai/ha): 0%; pest or weed control at 62 g/ha ([4]; 62 g ai/ha): 0%; pest or weed control at 125 g/ha ([4]; 125 g ai/ha): 0%; pest or weed control at 250 g/ha ([4]; 250 g ai/ha): 0%; pest or weed control at 16 g/ha ([5]; 16 g ai/ha): 0%; pest or weed control at 31 g/ha ([5]; 31 g ai/ha): 0%; pest or weed control at 62 g/ha ([5]; 62 g ai/ha): 0%; pest or weed control at 125 g/ha ([5]; 125 g ai/ha): 0%; pest or weed control at 250 g/ha ([5]; 250 g ai/ha): 0%; Arrowleaf Sida plant response rating ([6]; Preemergence, 125 g ai/ha): 43; Arrowleaf Sida plant response rating ([6]; Preemergence, 250 g ai/ha): 80; pest or weed control at 16 g/ha ([6]; Sida rhombifolia, post-emergence, Postemergence, 16 g ai/ha): 30%; pest or weed control at 31 g/ha ([6]; Sida rhombifolia, post-emergence, Postemergence, 31 g ai/ha): 50%; pest or weed control at 62 g/ha ([6]; Sida rhombifolia, post-emergence, Postemergence, 62 g ai/ha): 50%; pest or weed control at 125 g/ha ([6]; Sida rhombifolia, post-emergence, Postemergence, 125 g ai/ha): 65%; pest or weed control at 250 g/ha ([6]; Sida rhombifolia, post-emergence, Postemergence, 250 g ai/ha): 75%; pest or weed control at 1000 g/ha ([6]; Sida rhombifolia, pre-emergence, Preemergence, 1000 g ai/ha): 100%; pest or weed control at 31 g/ha ([7]; Amaranthus palmeri, post-emergence, Postemergence, 31 g ai/ha): 40%; pest or weed control at 62 g/ha ([7]; Amaranthus palmeri, post-emergence, Postemergence, 62 g ai/ha): 60%; pest or weed control at 125 g/ha ([7]; Amaranthus palmeri, post-emergence, Postemergence, 125 g ai/ha): 75%; pest or weed control at 250 g/ha ([7]; Amaranthus palmeri, post-emergence, Postemergence, 250 g ai/ha): 95%; Pigweed, Palmer plant response rating ([7]; 125 g ai/ha): 86; Pigweed, Palmer plant response rating ([7]; 250 g ai/ha): 95; Corn plant response rating (corn (Zea mays); Preemergence, 125 g ai/ha): 0; Corn plant response rating (corn (Zea mays); Preemergence, 250 g ai/ha): 0; Corn plant response rating (crop injury, 0 = no effect, 100 = complete kill) at 16 g/ha (corn (Zea mays); Zea mays, post-emergence, Postemergence, 16 g ai/ha): 0%; Corn plant response rating (crop injury, 0 = no effect, 100 = complete kill) at 31 g/ha (corn (Zea mays); Zea mays, post-emergence, Postemergence, 31 g ai/ha): 0%; Corn plant response rating (crop injury, 0 = no effect, 100 = complete kill) at 62 g/ha (corn (Zea mays); Zea mays, post-emergence, Postemergence, 62 g ai/ha): 0%; Corn plant response rating (crop injury, 0 = no effect, 100 = complete kill) at 125 g/ha (corn (Zea mays); Zea mays, post-emergence, Postemergence, 125 g ai/ha): 0%; Corn plant response rating (crop injury, 0 = no effect, 100 = complete kill) at 250 g/ha (corn (Zea mays); Zea mays, post-emergence, Postemergence, 250 g ai/ha): 0%; Corn plant response rating (crop injury, 0 = no effect, 100 = complete kill) at 1000 g/ha (corn (Zea mays); Zea mays, pre-emergence, Preemergence, 1000 g ai/ha): 0%; pest or weed control at 16 g/ha ([8]; Convolvulus arvensis, post-emergence, Postemergence, 16 g ai/ha): 0%; pest or weed control at 31 g/ha ([8]; Convolvulus arvensis, post-emergence, Postemergence, 31 g ai/ha): 0%; pest or weed control at 62 g/ha ([8]; Convolvulus arvensis, post-emergence, Postemergence, 62 g ai/ha): 0%; pest or weed control at 125 g/ha ([8]; Convolvulus arvensis, post-emergence, Postemergence, 125 g ai/ha): 0%; pest or weed control at 250 g/ha ([8]; Convolvulus arvensis, post-emergence, Postemergence, 250 g ai/ha): 0%; pest or weed control at 1000 g/ha ([8]; Convolvulus arvensis, pre-emergence, Preemergence, 1000 g ai/ha): 0%; Field Bindweed plant response rating ([8]; Preemergence, 125 g ai/ha): 0; Field Bindweed plant response rating ([8]; Preemergence, 250 g ai/ha): 0; pest or weed control at 31 g/ha ([9]; 31 g ai/ha): 0%; pest or weed control at 62 g/ha ([9]; 62 g ai/ha): 0%; pest or weed control at 125 g/ha ([9]; 125 g ai/ha): 0%; pest or weed control at 250 g/ha ([9]; 250 g ai/ha): 0%; pest or weed control at 16 g/ha ([10]; Commelina virginica, post-emergence, Postemergence, 16 g ai/ha): 0%; pest or weed control at 31 g/ha ([10]; Commelina virginica, post-emergence, Postemergence, 31 g ai/ha): 0%; pest or weed control at 62 g/ha ([10]; Commelina virginica, post-emergence, Postemergence, 62 g ai/ha): 0%; pest or weed control at 125 g/ha ([10]; Commelina virginica, post-emergence, Postemergence, 125 g ai/ha): 0%; pest or weed control at 250 g/ha ([10]; Commelina virginica, post-emergence, Postemergence, 250 g ai/ha): 0%; pest or weed control at 1000 g/ha ([10]; Commelina virginica, pre-emergence, Preemergence, 1000 g ai/ha): 0%; Dayflower, VA plant response rating ([10]; Preemergence, 125 g ai/ha): 0; Dayflower, VA plant response rating ([10]; Preemergence, 250 g ai/ha): 0; pest or weed control at 31 g/ha ([11]; Euphorbia heterophylla, post-emergence, Postemergence, 31 g ai/ha, read-out: Plant response rating, Poinsettia, Wild): 0%; pest or weed control at 62 g/ha ([11]; Euphorbia heterophylla, post-emergence, Postemergence, 62 g ai/ha, read-out: Plant response rating, Poinsettia, Wild): 0%; pest or weed control at 125 g/ha ([11]; Euphorbia heterophylla, post-emergence, Postemergence, 125 g ai/ha, read-out: Plant response rating, Poinsettia, Wild): 0%; pest or weed control at 250 g/ha ([11]; Euphorbia heterophylla, post-emergence, Postemergence, 250 g ai/ha, read-out: Plant response rating, Poinsettia, Wild): 0%; Poinsettia, Wild plant response rating ([11]; 125 g ai/ha): 80; Poinsettia, Wild plant response rating ([11]; 250 g ai/ha): 23
